Experimental data from PubChem BioAssay (NCI).
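Tested at 5 concentrations; 48 h exposure; 96-well plates; endpoints linearly interpolated, else capped at highest concentration. At the TGI there is no net growth.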

tested on: SK-MEL-28 melanoma; test: NCI anticancer screen, dose series, 48 h

Row | Structure (SMILES) | TGI
1 | Cc1cc2c(s1)C(N)CC2=O (configuration not stated) | > 100 µM
2 | Cc1cc2c(O)c(c1)COCc1cc(C)cc(c1O)COCc1cc(C)cc(c1O)COC2 | > 100 µM
3 | OC(c1ccoc1)c1cc2ccccc2s1 (configuration not stated) | > 10 µM

tested on: HCT-116 colon; test: NCI anticancer screen, dose series, 48 h

Row | Structure (SMILES) | TGI
4 | O=C(CSc1nnc(SCC(=O)NN=C2CCCCC2)s1)NN=C1CCCCC1 | > 100 µM
5 | Cc1cc2c(s1)C(N)CC2=O (configuration not stated) | > 100 µM
6 | Cc1cc2c(O)c(c1)COCc1cc(C)cc(c1O)COCc1cc(C)cc(c1O)COC2 | > 100 µM
7 | OC(c1ccoc1)c1cc2ccccc2s1 (configuration not stated) | > 10 µM

tested on: OVCAR-8 ovarian; test: NCI anticancer screen, dose series, 48 h

Row | Structure (SMILES) | TGI
8 | O=C(CSc1nnc(SCC(=O)NN=C2CCCCC2)s1)NN=C1CCCCC1 | > 100 µM
9 | Oc1ccc(O)c(Cc2ccccc2)c1 | 33.9 µM
10 | Cc1cc2c(s1)C(N)CC2=O (configuration not stated) | > 100 µM
11 | Cc1cc2c(O)c(c1)COCc1cc(C)cc(c1O)COCc1cc(C)cc(c1O)COC2 | > 100 µM
12 | OC(c1ccoc1)c1cc2ccccc2s1 (configuration not stated) | > 10 µM

tested on: HOP-62 NSCLC; test: NCI anticancer screen, dose series, 48 h

Row | Structure (SMILES) | TGI
13 | O=C(CSc1nnc(SCC(=O)NN=C2CCCCC2)s1)NN=C1CCCCC1 | > 100 µM
14 | Oc1ccc(O)c(Cc2ccccc2)c1 | 60.3 µM
15 | Cc1cc2c(s1)C(N)CC2=O (configuration not stated) | > 100 µM
16 | Cc1cc2c(O)c(c1)COCc1cc(C)cc(c1O)COCc1cc(C)cc(c1O)COC2 | > 100 µM
17 | OC(c1ccoc1)c1cc2ccccc2s1 (configuration not stated) | > 10 µM

tested on: ACHN renal; test: NCI anticancer screen, dose series, 48 h

Row | Structure (SMILES) | TGI
18 | O=C(CSc1nnc(SCC(=O)NN=C2CCCCC2)s1)NN=C1CCCCC1 | > 100 µM
19 | Oc1ccc(O)c(Cc2ccccc2)c1 | 28.7 µM
20 | Cc1cc2c(s1)C(N)CC2=O (configuration not stated) | > 100 µM
21 | Cc1cc2c(O)c(c1)COCc1cc(C)cc(c1O)COCc1cc(C)cc(c1O)COC2 | > 100 µM
22 | OC(c1ccoc1)c1cc2ccccc2s1 (configuration not stated) | > 10 µM

tested on: MDA-N; test: NCI anticancer screen, dose series, 48 h

Row | Structure (SMILES) | TGI
23 | O=C(CSc1nnc(SCC(=O)NN=C2CCCCC2)s1)NN=C1CCCCC1 | > 100 µM
24 | Oc1ccc(O)c(Cc2ccccc2)c1 | 41.5 µM
25 | Cc1cc2c(s1)C(N)CC2=O (configuration not stated) | > 100 µM
26 | Cc1cc2c(O)c(c1)COCc1cc(C)cc(c1O)COCc1cc(C)cc(c1O)COC2 | > 100 µM
27 | OC(c1ccoc1)c1cc2ccccc2s1 (configuration not stated) | > 10 µM

tested on: T-47D breast; test: NCI anticancer screen, dose series, 48 h

Row | Structure (SMILES) | TGI
28 | O=C(CSc1nnc(SCC(=O)NN=C2CCCCC2)s1)NN=C1CCCCC1 | > 100 µM
29 | Oc1ccc(O)c(Cc2ccccc2)c1 | 11.8 µM
30 | Cc1cc2c(s1)C(N)CC2=O (configuration not stated) | > 100 µM
31 | Cc1cc2c(O)c(c1)COCc1cc(C)cc(c1O)COCc1cc(C)cc(c1O)COC2 | > 100 µM
32 | OC(c1ccoc1)c1cc2ccccc2s1 (configuration not stated) | > 10 µM

tested on: LOX IMVI melanoma; test: NCI anticancer screen, dose series, 48 h

Row | Structure (SMILES) | TGI
33 | O=C(CSc1nnc(SCC(=O)NN=C2CCCCC2)s1)NN=C1CCCCC1 | > 100 µM
34 | Oc1ccc(O)c(Cc2ccccc2)c1 | 41 µM
35 | OC(c1ccoc1)c1cc2ccccc2s1 (configuration not stated) | > 10 µM

tested on: EKVX NSCLC; test: NCI anticancer screen, dose series, 48 h

Row | Structure (SMILES) | TGI
36 | O=C(CSc1nnc(SCC(=O)NN=C2CCCCC2)s1)NN=C1CCCCC1 | > 100 µM
37 | Oc1ccc(O)c(Cc2ccccc2)c1 | > 100 µM
38 | Cc1cc2c(s1)C(N)CC2=O (configuration not stated) | > 100 µM
39 | Cc1cc2c(O)c(c1)COCc1cc(C)cc(c1O)COCc1cc(C)cc(c1O)COC2 | > 100 µM
40 | OC(c1ccoc1)c1cc2ccccc2s1 (configuration not stated) | > 10 µM

tested on: MDA-MB-435; test: NCI anticancer screen, dose series, 48 h

Row | Structure (SMILES) | TGI
41 | O=C(CSc1nnc(SCC(=O)NN=C2CCCCC2)s1)NN=C1CCCCC1 | > 100 µM
42 | Oc1ccc(O)c(Cc2ccccc2)c1 | 42 µM
43 | Cc1cc2c(s1)C(N)CC2=O (configuration not stated) | > 100 µM
44 | Cc1cc2c(O)c(c1)COCc1cc(C)cc(c1O)COCc1cc(C)cc(c1O)COC2 | > 100 µM
45 | OC(c1ccoc1)c1cc2ccccc2s1 (configuration not stated) | > 10 µM

tested on: HCC-2998 colon; test: NCI anticancer screen, dose series, 48 h

Row | Structure (SMILES) | TGI
46 | O=C(CSc1nnc(SCC(=O)NN=C2CCCCC2)s1)NN=C1CCCCC1 | > 100 µM
47 | Oc1ccc(O)c(Cc2ccccc2)c1 | > 100 µM
48 | Cc1cc2c(s1)C(N)CC2=O (configuration not stated) | > 100 µM
49 | Cc1cc2c(O)c(c1)COCc1cc(C)cc(c1O)COCc1cc(C)cc(c1O)COC2 | > 100 µM
50 | OC(c1ccoc1)c1cc2ccccc2s1 (configuration not stated) | > 10 µM

tested on: KM12 colon; test: NCI anticancer screen, dose series, 48 h

Row | Structure (SMILES) | TGI
51 | O=C(CSc1nnc(SCC(=O)NN=C2CCCCC2)s1)NN=C1CCCCC1 | > 100 µM
52 | Oc1ccc(O)c(Cc2ccccc2)c1 | 65.2 µM
53 | Cc1cc2c(s1)C(N)CC2=O (configuration not stated) | > 100 µM
54 | Cc1cc2c(O)c(c1)COCc1cc(C)cc(c1O)COCc1cc(C)cc(c1O)COC2 | > 100 µM
55 | OC(c1ccoc1)c1cc2ccccc2s1 (configuration not stated) | > 10 µM

tested on: U251 CNS; test: NCI anticancer screen, dose series, 48 h

Row | Structure (SMILES) | TGI
56 | O=C(CSc1nnc(SCC(=O)NN=C2CCCCC2)s1)NN=C1CCCCC1 | > 100 µM
57 | Oc1ccc(O)c(Cc2ccccc2)c1 | 45.8 µM
58 | Cc1cc2c(s1)C(N)CC2=O (configuration not stated) | > 100 µM
59 | Cc1cc2c(O)c(c1)COCc1cc(C)cc(c1O)COCc1cc(C)cc(c1O)COC2 | > 100 µM
60 | OC(c1ccoc1)c1cc2ccccc2s1 (configuration not stated) | > 10 µM

tested on: SW-620 colon; test: NCI anticancer screen, dose series, 48 h

Row | Structure (SMILES) | TGI
61 | O=C(CSc1nnc(SCC(=O)NN=C2CCCCC2)s1)NN=C1CCCCC1 | > 100 µM
62 | Oc1ccc(O)c(Cc2ccccc2)c1 | 56.9 µM
63 | Cc1cc2c(s1)C(N)CC2=O (configuration not stated) | > 100 µM
64 | Cc1cc2c(O)c(c1)COCc1cc(C)cc(c1O)COCc1cc(C)cc(c1O)COC2 | > 100 µM
65 | OC(c1ccoc1)c1cc2ccccc2s1 (configuration not stated) | > 10 µM

tested on: NCI-H460 lung; test: NCI anticancer screen, dose series, 48 h

Row | Structure (SMILES) | TGI
66 | O=C(CSc1nnc(SCC(=O)NN=C2CCCCC2)s1)NN=C1CCCCC1 | > 100 µM
67 | Oc1ccc(O)c(Cc2ccccc2)c1 | 49.5 µM
